Data from publication PMC6943726, “Discovery of 8-Amino-Substituted 2-Phenyl-2,7-Naphthyridinone Derivatives as New c-Kit/VEGFR-2 Kinase Inhibitors” (Molecules, 2019).

Legend:
Assay type in all cases: biochemical
[1] = target: T1, c-Kit (Homo sapiens, UniProt P10721); assay: HTRF enzyme assay with recombinant c-Kit kinase domain; settings: for IC50: purified recombinant c-Kit kinase domain, HTRF, read-out: Inhibitory Activity, IC50, c-Kit
T1 construct: was evaluated using an enzyme assay with a recombinant kinase domain; purchased Invitrogen (Carlsbad, CA, US)
T1 sequence (P10721 589-937 limits assumed): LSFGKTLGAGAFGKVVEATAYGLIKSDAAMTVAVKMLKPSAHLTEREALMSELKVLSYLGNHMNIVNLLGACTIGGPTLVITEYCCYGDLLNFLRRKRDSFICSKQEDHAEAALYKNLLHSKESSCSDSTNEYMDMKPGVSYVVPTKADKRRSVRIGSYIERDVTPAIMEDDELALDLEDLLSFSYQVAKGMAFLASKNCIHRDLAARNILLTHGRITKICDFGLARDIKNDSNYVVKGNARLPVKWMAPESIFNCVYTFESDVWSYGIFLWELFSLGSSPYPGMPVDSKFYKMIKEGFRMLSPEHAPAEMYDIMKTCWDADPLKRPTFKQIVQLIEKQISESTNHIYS
Description: (§1) The ability of the synthesized compounds to inhibit MET, c-Kit, and VEGFR-2 activities was evaluated using an enzyme assay with a recombinant kinase domain [29]. Based on the structure activity relationship (SAR) of MET inhibitors, we proposed that the removal of the key diaryl ether fragments in compound 3 would result in a loss of MET activity.
(§2) The ability of compounds to inhibit the activity of three kinases (MET, c-Kit, and VEGFR-2) was tested in vitro [30]. Enzyme assays were run in homogeneous time-resolved fluorescence (HTRF) format in 384-well microtiter plates using purified kinases purchased from Invitrogen (Carlsbad, CA, US). The HTRF KinEASE TK kit (contains substrate-biotin, antibody-cryptate, streptavidin-XL665, 5×enzymatic buffer, and detection buffer) was purchased from Cisbio (Codolet, France), and the kinase assays were performed according to the manufacturer’s instructions. After the kinases and the compounds incubated at 25~30 °C for 5 min, the reactions were initiated by the addition of 2 μL of mixed substrate solution (mixed solution of ATP (Sigma, Shanghai, China) and substrate-biotin). The final concentrations of kinases were at EC80 and the total reaction volume was 8 μL. Plates were incubated at 30 °C for 30~60 min, then the reactions were quenched by the addition 8 μL mixed detection solution (mixed solution of antibody-cryptate and streptavidin-XL665 in detection buffer). The fluorescence excitation wavelength was […]. The fluorescence at 665 nm (acceptor emission wavelength) and 620 nm (donor emission wavelength) was measured with a PHERAstar FS plate reader (BMG, LABTECH, Ortenberg, Germany) using a time delay of 50 μs. All kinase assays were conducted using ATP concentrations below the enzyme Kmapp and kinase-specific biotinylated substrate peptides.
(§3) The data for dose responses were plotted as percentage of inhibition calculated with the data reduction formula 100 × [1 − (U1 − C2)/(C1 − C2)] versus concentration of compound, where U is the emission ratio of 665 nm and 620 nm of test sample, C1 is the average value obtained for solvent control (2% DMSO), and C2 is the average value obtained for no reaction control (no kinase sample). Inhibition curves were generated by plotting percentage of control activity versus log10 of the concentration of each […]. The IC50 values were calculated by nonlinear regression with Graphpad Prism 5 (GraphPad Software, San Diego, CA).

[2] = target: T2, VEGFR-2 (Homo sapiens, UniProt P35968); assay: HTRF enzyme assay with recombinant VEGFR-2 kinase domain; settings: for IC50: purified recombinant VEGFR-2 kinase domain, HTRF, read-out: Inhibitory Activity, IC50, VEGFR-2
T2 construct: was evaluated using an enzyme assay with a recombinant kinase domain; purchased Invitrogen (Carlsbad, CA, US)
T2 sequence (P35968 834-1162 limits assumed): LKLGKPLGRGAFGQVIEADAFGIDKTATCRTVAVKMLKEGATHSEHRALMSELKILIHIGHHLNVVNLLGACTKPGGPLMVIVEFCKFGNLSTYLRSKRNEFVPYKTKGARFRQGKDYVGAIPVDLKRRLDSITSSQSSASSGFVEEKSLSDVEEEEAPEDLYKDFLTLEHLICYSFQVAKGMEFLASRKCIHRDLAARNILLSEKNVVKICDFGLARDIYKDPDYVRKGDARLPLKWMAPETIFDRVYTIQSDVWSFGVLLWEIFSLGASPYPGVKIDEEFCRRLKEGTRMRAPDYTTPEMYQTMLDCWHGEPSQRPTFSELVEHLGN
Description: as §1, §2, §3

[3] = target: T3, MET (Homo sapiens, UniProt P08581); assay: HTRF enzyme assay with recombinant MET kinase domain; settings: purified recombinant MET kinase domain, read-out: Inhibitory Activity, IC50, MET
T3 construct: was evaluated using an enzyme assay with a recombinant kinase domain; purchased Invitrogen (Carlsbad, CA, US)
T3 sequence (P08581 1078-1345 limits assumed): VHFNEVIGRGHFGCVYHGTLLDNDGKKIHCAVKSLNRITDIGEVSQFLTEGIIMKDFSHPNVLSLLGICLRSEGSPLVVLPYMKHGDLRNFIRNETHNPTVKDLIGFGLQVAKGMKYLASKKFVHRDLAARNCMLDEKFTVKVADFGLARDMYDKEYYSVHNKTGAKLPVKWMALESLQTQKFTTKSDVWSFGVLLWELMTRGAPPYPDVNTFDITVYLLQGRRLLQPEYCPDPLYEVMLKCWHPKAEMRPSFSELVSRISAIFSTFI
Description: as §1, §2, §3

Structure (SMILES) | IC50 [1] | IC50 [2] | IC50 [3] | c-Kit potency relative to compound 9g ([1]; compared with 9g) | VEGFR-2 potency, fold more potent than compound 3 ([2]; ratio of IC50 values vs compound 3) | c-Kit inhibitory activity (in words) [1]
Cc1cc2ccnc(NCc3cccnc3)c2c(=O)n1-c1ccc(OC(F)(F)F)cc1 [Compound 10n, 3-methyl-8-((pyridin-3-ylmethyl)amino)-2-(4-(trifluoromethoxy)phenyl)-2,7-naphthyridin-1(2H)-one] | > 5 µM | > 5 µM | > 5 µM | – | – | –
Cc1cc2ccnc(NCc3ccncc3)c2c(=O)n1-c1ccc(OC(F)(F)F)cc1 [Compound 10o, 3-methyl-8-((pyridin-4-ylmethyl)amino)-2-(4-(trifluoromethoxy)phenyl)-2,7-naphthyridin-1(2H)-one] | > 5 µM | 0.538 µM | > 5 µM | – | – | –
Cc1cc2ccnc(NCc3ccco3)c2c(=O)n1-c1ccc(OC(F)(F)F)cc1 [Compound 10p, 8-((furan-2-ylmethyl)amino)-3-methyl-2-(4-(trifluoromethoxy)phenyl)-2,7-naphthyridin-1(2H)-one] | > 5 µM | > 5 µM | > 5 µM | – | – | –

More lines, main results first:

IC50 [1] | IC50 [2] | IC50 [3] | c-Kit potency relative to compound 9g ([1]; compared with 9g) | VEGFR-2 potency, fold more potent than compound 3 ([2]; ratio of IC50 values vs compound 3) | Structure (SMILES) | c-Kit inhibitory activity (in words) [1]
> 5 µM | > 5 µM | > 5 µM | – | – | Cc1cc2ccnc(NCc3cccc4ccccc34)c2c(=O)n1-c1ccc(OC(F)(F)F)cc1 [Compound 10q, 3-methyl-8-((naphthalen-1-ylmethyl)amino)-2-(4-(trifluoromethoxy)phenyl)-2,7-naphthyridin-1(2H)-one] | –
0.169 µM | 0.0317 µM | > 5 µM | five-times more potent than compound 9g | 5.0–8.8 fold | Cc1cc2ccnc(NCc3ccnc4ccccc34)c2c(=O)n1-c1ccc(OC(F)(F)F)cc1 [Compound 10r, 3-methyl-8-((quinolin-4-ylmethyl)amino)-2-(4-(trifluoromethoxy)phenyl)-2,7-naphthyridin-1(2H)-one] | slightly stronger c-Kit inhibitory activity than compound 3
> 5 µM | 0.887 µM | > 5 µM | – | – | Cc1cc2ccnc(NCc3ccnc4ccccc34)c2c(=O)n1-c1ccc(F)cc1F [Compound 10s, 2-(2,4-difluorophenyl)-3-methyl-8-((quinolin-4-ylmethyl)amino)-2,7-naphthyridin-1(2H)-one] | –
